Measured values as given in patent US7122668B2, “Platinum complexes and their use in therapy” (priority 2002, dated 2006).
Read-outs that look alike come from different tables or passages of the source.

Experiments:
[1] = system: plasmid pS16-hGH DNA; assay: Determination of Pt-DNA adducts by EtBr fluorescence; assay type: binding; details: DNA modified 24 hr
Experimental: A plasmid (4.8 kbp) containing a gene coding for human growth hormone, plasmid pS16-hGH, was prepared as previously described^(23). The freshly prepared DNA was analyzed by agarose gel (1%) electrophoresis using post-staining with SYBR Green I fluorescent dye (Molecular Probes, Eugene, Oreg.). […] The ratio of absorbance at 260 nm to that at 280 nm was always between 1.8 and 1.9.
DNA were modified by the platinum complexes in 10 mM NaClO4 (pH 7.0) at 37° C. in the dark for 24 hr. Measurements of EtBr fluorescence were performed on an LS50B luminescence spectrometer (Perkin Elmer, Norwalk, Conn.). Fluorescence measurements of DNA modified by platinum in the presence of EtBr were performed using the excitation wavelength of 546 nm (slit 10 run) and emission wavelength of 590 nm (slit 10 nm) at 25° C. The concentrations were 0.01 mg/ml for DNA and 0.04 mg/ml for EtBr, which corresponded to the saturation of all intercalation sites of EtBr in DNA.
EtBr, as the fluorescent probe, was used to distinguish between perturbations induced in DNA by adducts of platinum (II) compounds^(14). Binding of EtBr by intercalation is blocked in a stoichiometric manner by formation of the bifunctional adducts, as of Cis-Pt, which results in a loss of fluorescence intensity. On the other hand, formation of monofunctional adducts results only in a slight decrease of EtBr fluorescence.

[2] = In vivo toxicity; design: species or system BALB/C mice; details: 5 mg/kg, i.v., three times at weekly intervals
[3] = system: C-26 colon carcinoma; assay: In vivo antitumor efficacy; design: species or system BALB/C mice; details: 5 mg/kg, three injections at weekly intervals from day 3 after i.p. tumor inoculation
Experimental: Female BALB/C mice (in the weight range of 17–20 g) were injected i.p. with 1*10^6 C-26 colon carcinomas.
Treatment began at day 3 after tumor inoculation and was repeated twice for a total of three injections at weekly intervals.
Female BALB/C mice (in the weight range of 17–20 gr) were injected i.p. with 1*10^6 C-26 colon carcinomas.
Treatment was as performed according to the schedule described above.

[4] = system: calf thymus DNA; assay: DNA binding (calf thymus DNA platination); details: for ΔΔεmax, maximum of the positive CD band at around 275 nm: difference between control and platinated DNA; for t1/2 half time of the binding to calf thymus DNA: 10 mM NaClO4, 37° C., ri = 0.08, differential pulse polarography
Experimental: The formation of calf thymus DNA platination was also examined. To this end, calf thymus DNA was incubated with different compounds (Table 3) in which the following parameters were determined: […]

[5] = system: Ubiquitin and Heart Myoglobin; details: 1:1 reaction, 1–2 mM, 10 mM phosphate buffer, pH 6.4, 37° C.
Experimental: Since most platinum(II) derivatives which are administered intravenously become protein bound within 24 hr, the binding kinetics of two model proteins, Ubiquitin (MW 8565) and Heart Myoglobin (MW 16951), to Pt complexes was determined. To this end, a 1:1 reaction between the platinum complexes and the proteins were carried out at 1–2 mM concentrations, in 10 mM phosphate buffer, pH 6.4 at 37° C. Protein binding kinetics were measured directly on the reaction mixtures, by Electrospray Ionization Mass Spectrometry (ESI-MS).

[6] = system: C-26 cells; assay type: cell-based; details: C-26 cells, mean ± SD
Experimental: (§1) A human ovarian carcinoma cell line (OV-1063), established at the Hadassah University hospital and human colon carcinoma cell line (C-26) were maintained in RPMI-1640 medium supplemented with 10% FCS, antibiotics and glutamine. All culture medium components were purchased from Biological Industries (Beit-HaEmek, Israel). Both cell lines were maintained at 37° C. in a water-jacketed CO2 incubator.
(§2) Cytotoxicity of the synthesized complexes was tested by the methylene blue (MB) staining assay^(19). A fixed number of exponentially growing cells in 200 μl medium were plated in 96-microwell, flat-bottomed plates. For each of the complexes tested, 4 well were used. Following 24 hr in culture, 20 μl of different concentration of the complexes were added to each well containing untreated cells. Normal saline was added to the controls. Cells were exposed to complexes for 4, 24, or 72 hr. At the end of exposure for a fixed time interval, the treated cells as well as parallel control cells were washed and incubation was continued in fresh medium until termination of the experiment. Following 72 hr of growth, cells were fixed by adding 50 μl of 2.5% of glutaraldehyde to each well for 15 min. Fixed cells were rinsed 10 times with fresh de-ionized water and once with borate buffer (0.1 M, pH=8.5), dried and stained with MB (100 μl of 1% solution in 0.1 M borate buffer, pH=8.5) for 1 hr at room temperature. Stained cells were rinsed thoroughly with de-ionized water to remove any non-cell-bound die and then dried. The MB bound to the fixed cells was extracted by incubation at 37° C. with 200 μl of 0.1N HCl for 1 hr, and the net optical density (OD) of the die in each well was determined by a plate spectrophotometer (Labsystems Multyskan BICHROMATIC, Finland) at 620 nm.

[7] = system: OV-1063 cells; assay: Methylene blue (MB) assay of cell survival; assay type: cell-based, human; details: mean ± SD
Experimental: as §1, §2

[8] = system: 41McisR; assay: Microculture tetrazolium (MTS) cell survival assay; assay type: cell-based; details: for resistance factor (IC50 resistant/IC50 sensitive): 41McisR/41M; for IC50: 24 hours incubation, MTS
Experimental: (§3) Cytotoxicity of the synthesized complexes was also tested by the MTS method^(21). Accordingly, the compounds were incubated for 24 hours with the corresponding cell lines and the cell survival in compound-treated cultures was evaluated.
(§4) The complexes were incubated for 24 hours with the above mentioned cell lines and the cell survival in compound-treated cultures was evaluated by the (microculture tetrazolium) MTS method as previously reported.

[9] = system: 41M; assay: Microculture tetrazolium (MTS) cell survival assay; assay type: cell-based; details: 24 hours incubation
Experimental: as §3, §4

[10] = system: A2780cisR; assay: Microculture tetrazolium (MTS) cell survival assay; assay type: cell-based; details: for IC50: 24 hours incubation, MTS; for resistance factor (IC50 resistant/IC50 sensitive): A2780cisR/A2780
Experimental: as §3, §4

[11] = system: A2780; assay: Microculture tetrazolium (MTS) cell survival assay; assay type: cell-based; details: 24 hours incubation
Experimental: as §3, §4

[12] = system: CH1cisR; assay: Microculture tetrazolium (MTS) cell survival assay; assay type: cell-based; details: for IC50: 24 hours incubation, MTS; for resistance factor (IC50 resistant/IC50 sensitive): CH1cisR/CH1
Experimental: as §3, §4

[13] = system: CH1; assay: Microculture tetrazolium (MTS) cell survival assay; assay type: cell-based; details: 24 hours incubation
Experimental: as §3, §4

[14] = system: C-26 cells; assay: Platinum complex intracellular accumulation (FAAS); assay type: cell-based, human; details: C-26, 24 hr
Experimental: (§5) Cells were seeded for 48 hr before one of the complexes was added to the culture medium. After 24 hr of exposure, the complexes were removed and the cells washed twice with ice-cold PBS and pelleted. The cells (1*10^6) were dried and mineralized by heating for 10 min in 65% HNO3 (BDH, England)^(22). Samples were dissolved in de-ionized water and each sample was measured at two different dilutions by flameless Zeeman atomic absorption spectrometer (FAAS). The calibration curves included 5 standards of K2PtCl4 stock solution with concentrations ranging from 50 to 250 ng platinum per ml. Platinum content was expressed as picomoles platinum per 1*10^6 cells.
(§6) The Pt content associated with the cells was measured by Atomic Absorption Spectroscopy (AAS).

[15] = system: OV-1063 cells; assay: Platinum complex intracellular accumulation (FAAS); assay type: cell-based, human; details: OV-1063, 24 hr
Experimental: as §5, §6

[16] = system: C-26 cells; assay: Determination of Pt-DNA adducts by FAAS; assay type: cell-based, human; details: for Pt-DNA adducts: C-26, 24 hr
Experimental: (§7) Cells were seeded for 48 hr before one of the drugs was added to the culture medium. After 24 hr of exposure, the complexes were removed and the cells washed twice with ice-cold PBS and pelleted. DNA from platinum-containing material (2*10^6 cells) was extracted from the cell pellet by QIAamp DNA Blood Kit (QIAGEN, Germany) according to the manufacture instructions. DNA yield was determined by measuring the concentration of DNA in the eluate by absorbance at 260 nm.

[17] = system: OV-1063 cells; assay: Determination of Pt-DNA adducts by FAAS; assay type: cell-based, human; details: for Pt-DNA adducts: OV-1063, 24 hr
Experimental: as §7

[18] = system: caspase-3 in C-26 cells; assay: EnzChek Caspase-3 assay; assay type: cell-based, human; details: 4.5 μM complex, cisplatin 1.5 μM, 5 or 16 hrs
Text: (§8) (2) By the EnzChektm Caspase-3 Assay Kit (Molecular probes, Eugene, Oreg.). This Kit allows the detection of apoptosis by assaying for increases in caspase-3 and other DEVD-specific protease activities (e.g., caspase-7). The basis for the assay is rodamine 110 bis-(N-CBZ-aspartil-L-glutarnyl-L-valyl-aspartic acid amide) (Z-DEVD-R110). This substrate is a bisamide derivative of rhodamine 110(R110) containing DEVD peptides covalently linked to each of R110's amino groups. Upon enzymatic cleavage, the non-fluorescent bisamide substrate converted to the fluorescent R110, which can be quantified by fluorescence microplate reader using excitation at 485±10 nm and emission detection at 535±10 nm.
(§9) (12) (5 μM and 7.5 μM, respectively) for 5 or 16 hr. Both “induced” and “control” cells were then harvested and lysed. Enzyme reactions were performed in 96-well plates with 50 μg of cytosolic proteins (55 minutes of incubation) and with a final concentration of 25 μM Z-DEVD-R110 substrate as described in the kit protocol.

[19] = system: caspase-3 in OV-1063 cells; assay: EnzChek Caspase-3 assay; assay type: cell-based, human
Text: as §8, §9

[20] = cited from earlier work
[21] = listed as trans-[PtCl2(NH3)(pip)]
[22] = rb = 0.05, listed as trans-[PtCl2(NH3)(pip)]
[23] = 4 h exposure, read-out: IC50, 4 h
[24] = 24 h exposure, read-out: IC50, 24 h
[25] = 72 h exposure, read-out: IC50, 72 h

| Molecule | decrease of EtBr fluorescence intensity by DNA adducts [1] | Increase in life span [3] | Survival [3] | resistance factor (IC50 resistant/IC50 sensitive) [8] | IC50 [8] | IC50 [9] | IC50 [10] | resistance factor (IC50 resistant/IC50 sensitive) [10] | IC50 [11] | IC50 [12] | resistance factor (IC50 resistant/IC50 sensitive) [12] | IC50 [13] | Penetration to cells [14] | Penetration to cells [15] | Pt-DNA adducts [16] | Pt-DNA adducts [17] | % IEC/adduct, frequency of interstrand crosslinks [4] | unwinding angle per adduct [4] | t1/2 half time of the binding to calf thymus DNA [4] | ΔTm, 0.2 M ([4]; rb = 0.05) | other results |
| --- | --- | --- | --- | --- | --- | --- | --- | --- | --- | --- | --- | --- | --- | --- | --- | --- | --- | --- | --- | --- | --- |
| C1CCN(C2CCNCC2)CC1.N.[Cl][Pt][Cl] [Complex 3, Trans-[PtCl2(NH3)(4-piperidino-piperidine)]] | The best adduct | 108% | 24 ± 3 days | – | – | – | – | – | – | – | – | – | – | – | – | – | – | – | – | – | toxicity (animal weight and survival) [2]: non-toxic |
| C1CCNCC1.N.[Cl][Pt][Cl] [Complex 1, Trans-[PtCl2(NH3)(piperidine)]] | – | – | – | – | – | – | – | – | – | – | – | – | – | – | – | – | – | – | – | – | % IEC/adduct, frequency of interstrand crosslinks [4, 21]: 26%; unwinding angle per adduct [4, 21]: 52.8°; ΔTm, 0.01M Na+ ([4]; rb = 0.05, 0.01M Na+, listed as trans-[PtCl2(NH3)(pip)]): +7.6 0.C; ΔTm, 0.2 M [4, 22]: −1.9 0.C; ΔΔεmax, maximum of the positive CD band at around 275 nm [4, 22]: 0.15; binding to the proteins [5]: binds rapidly |
| N.N.[Cl][Pt][Cl] [Cisplatin, cis-[PtCl2(NH3)2], reference compound] | – | 108% | 24 ± 5 days | 4.1 | 107 µM | 26 µM | 38 µM | 17.3 | 2.2 µM | 23 µM | 3.8 | 6 µM | 2244 pmol Pt/1 * 10^6 cells | 194 pmol Pt/1 * 10^6 cells | 149 pmol Pt/50 μg DNA | 107 pmol Pt/50 μg DNA | 6% | 13° | 100 min | −4.0 0.C | IC50 [6, 23]: 1.5 ± 1.3 µM; IC50 [6, 24]: 0.6 ± 0.1 µM; IC50 [6, 25]: 0.2 ± 0.2 µM; IC50 [7, 23]: 2 ± 0.5 µM; IC50 [7, 24]: 0.7 ± 0.2 µM; IC50 [7, 25]: 0.5 ± 0.2 µM; ΔTm, 0.01M Na+ ([4]; rb = 0.05, 0.01M Na+): −2.6 0.C; ΔΔεmax, maximum of the positive CD band at around 275 nm ([4]; rb = 0.05): 1.27; caspase-3 fluorescent signal [18]: No fluorescent signal; caspase-3 fluorescent signal ([19]; cisplatin 2 μM, 5 or 16 hrs): No fluorescent signal |
| trans-[PtCl(PyAc—N,O)(NH3)] | – | – | – | – | – | – | – | – | – | – | – | – | – | – | – | – | – | – | – | – | solubility in water [20]: 4 to 5 mM |
| Trans-[PtCl2(4-picoline)(piperazine)].HCl [Complex 13] | considerable decrease in fluorescence | – | – | 3.3 | 147 ± 10 µM | 45 ± 3 µM | 24 ± 3 µM | 2.4 | 10 ± 3 µM | 42 ± 3 µM | 2.6 | 16 ± 2 µM | 54461 pmol Pt/1 * 10^6 cells | 12307 pmol Pt/1 * 10^6 cells | 297 pmol Pt/50 μg DNA | 205 pmol Pt/50 μg DNA | 6% | 17° | 12 min | −3.5 0.C | DNA platination relative to Cis-Pt ([16]; C-26 cells): 7 fold; DNA platination relative to Cis-Pt ([17]; OV-1063 cells): 7 fold; ΔTm, 0.01M Na+ [4]: +4.7 0.C; ΔΔεmax, maximum of the positive CD band at around 275 nm ([4]; rb = 0.05): −0.30; caspase-3 activation, increase in fluorescence vs untreated cells ([19]; 5 hr, 6.5 μM piperidine complex or 7.5 μM piperazine complex): ~2 fold; caspase-3 activation, increase in fluorescence vs untreated cells ([19]; 16 hr): 3 fold |
